Measurements from publication doi:10.1101/2024.03.13.583470v1, “SARS-CoV-2 methyltransferase nsp10-16 in complex with natural and drug-like purine analogs for guiding structure-based drug discovery” (biorxiv, 2024).

Biological target: T1, nsp10-16 (Severe acute respiratory syndrome coronavirus 2, UniProt P0DTD1)
T1 construct: gene rep
Assay: X-ray crystallography, soaking
Assay type: binding
Conditions: SAM site, fully replaces SAM; 10 mM soak, pH 6.5

| Structure (SMILES) | X-ray crystallography, soaking |
| --- | --- |
| Nc1ncnc2c1c(I)cn2[C@@H]1O[C@H](CO)[C@@H](O)[C@H]1O [5-iodotubercidin] | toyocamycin, sangivamycin and 5-iodotubercidin share the same orientation as tubercidin |
| N#Cc1cn([C@@H]2O[C@H](CO)[C@@H](O)[C@H]2O)c2ncnc(N)c12 [toyocamycin] | toyocamycin, sangivamycin and 5-iodotubercidin share the same orientation as tubercidin |
